biological target: His-tagged recombinant human TrkA (Homo sapiens (Human), UniProt P04629); assay: TrkA LanthaScreen Eu Kinase Binding Assay; settings: averaged IC50; TR-FRET binding, 60 min, 22° C.; read-out: TrkA Enzyme IC50
In short: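 TR-FRET binding: 5 nM His-tagged human TrkA cytoplasmic domain with 4 nM Alexa-Fluor Tracer 236, 2 nM biotin anti-His and 2 nM Eu-streptavidin. Buffer was 25 mM MOPS pH 7.5, 5 mM MgCl2, 0.005% Triton X-100, 2% DMSO, 60 min at 22° C. IC50 from a four-parameter fit of ratiometric percent of control.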

His-tagged recombinant human TrkA, sequence (P04629 440-796): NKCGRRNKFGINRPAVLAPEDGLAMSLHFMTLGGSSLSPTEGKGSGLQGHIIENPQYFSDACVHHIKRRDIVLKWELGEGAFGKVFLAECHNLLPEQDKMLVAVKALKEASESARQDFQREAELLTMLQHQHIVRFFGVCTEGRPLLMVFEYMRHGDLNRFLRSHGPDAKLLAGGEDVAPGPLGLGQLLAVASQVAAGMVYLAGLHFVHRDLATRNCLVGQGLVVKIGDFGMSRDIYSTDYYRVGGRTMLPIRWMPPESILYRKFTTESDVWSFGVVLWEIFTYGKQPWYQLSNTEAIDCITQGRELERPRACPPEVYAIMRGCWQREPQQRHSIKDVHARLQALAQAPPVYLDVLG

SMILES	IC50
COCCO[C@@H]1Cc2ccccc2[C@H]1NC(=O)Nc1c2c(nn1-c1ccccc1)CCC2 [Example 50, 1-((1R,2R)-2-(2-methoxyethoxy)-2,3-dihydro-1H-inden-1-yl)-3-(2-phenyl-2,4,5,6-tetrahydrocyclopenta[c]pyrazol-3-yl)urea]	100 to 1000 nM
COCCO[C@H]1Cc2ccccc2[C@@H]1NC(=O)Nc1c(C)c(-c2cnn(C)c2)nn1-c1ccccc1 [Example 51, 1-(1′,4-dimethyl-1-phenyl-1H,1′H-[3,4′-bipyrazol]-5-yl)-3-((1S,2S)-2-(2-methoxyethoxy)-2,3-dihydro-1H-inden-1-yl)urea]	100 to 1000 nM
COCCO[C@H]1Cc2ccccc2[C@@H]1NC(=O)Nc1c(Br)c(C)nn1-c1ccccc1 [Example 52, 1-(4-bromo-3-methyl-1-phenyl-1H-pyrazol-5-yl)-3-((1S,2S)-2-(2-methoxyethoxy)-2,3-dihydro-1H-inden-1-yl)urea]	100 to 1000 nM
CCOc1nn(-c2ccccc2)c(NC(=O)NC2CCc3ccccc32)c1C (centres unmarked) [Example 53, 1-(2,3-dihydro-1H-inden-1-yl)-3-(3-ethoxy-4-methyl-1-phenyl-1H-pyrazol-5-yl)urea]	100 to 1000 nM
CCOc1nn(-c2ccccc2)c(NC(=O)N[C@H]2CCc3ccccc32)c1C [Example 54, (S)-1-(2,3-dihydro-1H-inden-1-yl)-3-(3-ethoxy-4-methyl-1-phenyl-1H-pyrazol-5-yl)urea]	100 to 1000 nM
CNC(=O)c1nn(-c2ccccc2)c(NC(=O)N[C@@H]2c3ccccc3C3(CC3)[C@H]2O)c1C [Example 59, 215-(3-(trans-2′-hydroxy-2′,3′-dihydrospiro[cyclopropane-1,1′-inden]-3′-yl)ureido)-N,4-dimethyl-1-phenyl-1H-pyrazole-3-carboxamide]	< 100 nM
Cc1c(-c2cnn(C)c2)nn(-c2ccccc2)c1NC(=O)N[C@@H]1c2ccccc2C[C@H]1O [Example 65, 1-(1′,4-dimethyl-1-phenyl-1H,1′H-[3,4′-bipyrazol]-5-yl)-3-((1R,2R)-2-hydroxy-2,3-dihydro-1H-inden-1-yl)urea]	< 100 nM
Cc1ncc(-c2nn(-c3ccccc3)c(NC(=O)N[C@@H]3c4ccccc4C[C@H]3O)c2C)cn1 [Example 66, 1-((1R,2R)-2-hydroxy-2,3-dihydro-1H-inden-1-yl)-3-(4-methyl-3-(2-methylpyrimidin-5-yl)-1-phenyl-1H-pyrazol-5-yl)urea]	< 100 nM
CCOc1ncc(-c2nn(-c3ccccc3)c(NC(=O)N[C@@H]3c4ccccc4C[C@H]3O)c2C)cn1 [Example 67, 1-(3-(2-ethoxypyrimidin-5-yl)-4-methyl-1-phenyl-1H-pyrazol-5-yl)-3-((1R,2R)-2-hydroxy-2,3-dihydro-1H-inden-1-yl)urea]	< 100 nM
COc1ncc(-c2nn(-c3ccccc3)c(NC(=O)N[C@@H]3c4ccccc4C[C@H]3O)c2C)cn1 [Example 68, 1-((1R,2R)-2-hydroxy-2,3-dihydro-1H-inden-1-yl)-3-(3-(2-methoxypyrimidin-5-yl)-4-methyl-1-phenyl-1H-pyrazol-5-yl)urea]	< 100 nM
Cc1c(-c2cc(C)c(=O)n(C)c2)nn(-c2ccccc2)c1NC(=O)N[C@@H]1c2ccccc2C[C@H]1O [Example 69, 1-(3-(1,5-dimethyl-6-oxo-1,6-dihydropyridin-3-yl)-4-methyl-1-phenyl-1H-pyrazol-5-yl)-3-((1R,2R)-2-hydroxy-2,3-dihydro-1H-inden-1-yl)urea]	< 100 nM
Cc1c(-c2cnn(C)c2)nn(-c2ccccc2)c1NC(=O)N[C@@H]1c2cc(Cl)ccc2C[C@H]1O [Example 70, 1-((1,2-trans)-6-chloro-2-hydroxy-2,3-dihydro-1H-inden-1-yl)-3-(1′,4-dimethyl-1-phenyl-1H,1′H-[3,4′-bipyrazol]-5-yl)urea]	< 100 nM
Cc1ncc(-c2nn(-c3ccccc3)c(NC(=O)N[C@@H]3c4cc(Cl)ccc4C[C@H]3O)c2C)cn1 [Example 71, 1-((1,2-trans)-6-chloro-2-hydroxy-2,3-dihydro-1H-inden-1-yl)-3-(4-methyl-3-(2-methylpyrimidin-5-yl)-1-phenyl-1H-pyrazol-5-yl)urea]	< 100 nM
Cc1c(-c2cnn(C)c2)nn(-c2ccccc2)c1NC(=O)N[C@@H]1c2ccccc2C(C)(C)[C@H]1O [Example 72]	< 100 nM
Cc1ncc(-c2nn(-c3ccccc3)c(NC(=O)N[C@@H]3c4ccccc4C(C)(C)[C@H]3O)c2C)cn1 [Example 73, 1-((1,2-trans)-2-hydroxy-3,3-dimethyl-2,3-dihydro-1H-inden-1-yl)-3-(4-methyl-3-(2-methylpyrimidin-5-yl)-1-phenyl-1H-pyrazol-5-yl)urea]	< 100 nM
Cc1c(OC[C@H]2CN(C)CCO2)nn(-c2ccccc2)c1NC(=O)N[C@@H]1c2ccccc2C(C)(C)C[C@H]1O [Example 74, 1-((1R,2R)-2-hydroxy-4,4-dimethyl-1,2,3,4-tetrahydronaphthalen-1-yl)-3-(4-methyl-3-(((R)-4-methylmorpholin-2-yl)methoxy)-1-phenyl-1H-pyrazol-5-yl)urea]	< 100 nM
Cc1c(OC[C@H]2CN(C)CCO2)nn(-c2ccccc2)c1NC(=O)N[C@H]1c2ccccc2C(C)(C)C[C@@H]1O [Example 75, 1-((1S,2S)-2-hydroxy-4,4-dimethyl-1,2,3,4-tetrahydronaphthalen-1-yl)-3-(4-methyl-3-(((R)-4-methylmorpholin-2-yl)methoxy)-1-phenyl-1H-pyrazol-5-yl)urea]	< 100 nM
Cc1c(OC[C@@H]2CN(C)CCO2)nn(-c2ccccc2)c1NC(=O)N[C@@H]1c2ccccc2C(C)(C)C[C@H]1O [Example 76, 1-((1R,2R)-2-hydroxy-4,4-dimethyl-1,2,3,4-tetrahydronaphthalen-1-yl)-3-(4-methyl-3-(((S)-4-methylmorpholin-2-yl)methoxy)-1-phenyl-1H-pyrazol-5-yl)urea]	< 100 nM
Cc1c(OC[C@H]2CN(C)CCO2)nn(-c2ccccc2)c1NC(=O)NC1c2cc(F)c(F)cc2C(C)(C)C[C@H]1O (stereo partly drawn) [Example 77, 1-(trans-6,7-difluoro-2-hydroxy-4,4-dimethyl-1,2,3,4-tetrahydronaphthalen-1-yl)-3-(4-methyl-3-(((R)-4-methylmorpholin-2-yl)methoxy)-1-phenyl-1H-pyrazol-5-yl)urea]	< 100 nM
Cc1c(OC[C@H]2CN(C)CCO2)nn(-c2ccccc2)c1NC(=O)NC1c2ccccc2C2(CC2)[C@@H]1O (stereo partly drawn) [Example 78, 1-(trans-2′-hydroxy-2,3′-dihydrospiro[cyclopropane-1,1′-inden]-3′-yl)-3-(4-methyl-3-(((R)-4-methylmorpholin-2-yl)methoxy)-1-phenyl-1H-pyrazol-5-yl)urea]	< 100 nM
CNC(=O)c1nn(-c2ccccc2)c(NC(=O)N[C@@H]2c3cc(F)c(F)cc3C(C)(C)C[C@H]2O)c1C [Example 79, 5-(3-((1,2-trans)-6,7-difluoro-2-hydroxy-4,4-dimethyl-1,2,3,4-tetrahydronaphthalen-1-yl)ureido)-N,4-dimethyl-1-phenyl-1H-pyrazole-3-carboxamide]	< 100 nM
Cc1c(-c2cnn(C)c2)nn(-c2ccccc2)c1NC(=O)N[C@@H]1c2cc(F)c(F)cc2C(C)(C)C[C@H]1O [Example 80, 1-((1,2-trans)-6,7-difluoro-2-hydroxy-4,4-dimethyl-1,2,3,4-tetrahydronaphthalen-1-yl)-3-(1′,4-dimethyl-1-phenyl-1H,1′H-[3,4′-bipyrazol]-5-yl)urea]	< 100 nM
Cc1c(OCC2CCN(C)CC2)nn(-c2ccccc2)c1NC(=O)N[C@@H]1c2cc(F)c(F)cc2C(C)(C)C[C@H]1O [Example 81, 1-((1,2-trans)-6,7-difluoro-2-hydroxy-4,4-dimethyl-1,2,3,4-tetrahydronaphthalen-1-yl)-3-(4-methyl-3-((1-methylpiperidin-4-yl)methoxy)-1-phenyl-1H-pyrazol-5-yl)urea]	< 100 nM
COc1nn(-c2ccccc2)c(NC(=O)N[C@@H]2c3cc(F)c(F)cc3C(C)(C)C[C@H]2O)c1C [Example 82, 1-((1,2-trans)-6,7-difluoro-2-hydroxy-4,4-dimethyl-1,2,3,4-tetrahydronaphthalen-1-yl)-3-(3-methoxy-4-methyl-1-phenyl-1H-pyrazol-5-yl)urea]	< 100 nM
Cc1c(-c2ccc(=O)n(C)c2)nn(-c2ccccc2)c1NC(=O)N[C@@H]1c2cc(F)c(F)cc2C(C)(C)C[C@H]1O [Example 83, 1-((1,2-trans)-6,7-difluoro-2-hydroxy-4,4-dimethyl-1,2,3,4-tetrahydronaphthalen-1-yl)-3-(4-methyl-3-(1-methyl-6-oxo-1,6-dihydropyridin-3-yl)-1-phenyl-1H-pyrazol-5-yl)urea]	< 100 nM
Cc1ncc(-c2nn(-c3ccccc3)c(NC(=O)N[C@@H]3c4cc(F)c(F)cc4C(C)(C)C[C@H]3O)c2C)cn1 [Example 84, 1-((1,2-trans)-6,7-difluoro-2-hydroxy-4,4-dimethyl-1,2,3,4-tetrahydronaphthalen-1-yl)-3-(4-methyl-3-(2-methylpyrimidin-5-yl)-1-phenyl-1H-pyrazol-5-yl)urea]	< 100 nM
CNC(=O)c1nn(-c2ccccc2)c(NC(=O)N[C@@H]2c3ccccc3C(C)(C)[C@@H](OC)[C@H]2O)c1C [Example 85, 5-(3-((r-1,t-2,t-3)-2-hydroxy-3-methoxy-4,4-dimethyl-1,2,3,4-tetrahydronaphthalen-1-yl)ureido)-N,4-dimethyl-1-phenyl-1H-pyrazole-3-carboxamide]	< 100 nM
CO[C@H]1[C@@H](O)[C@H](NC(=O)Nc2c(C)c(-c3cnn(C)c3)nn2-c2ccccc2)c2ccccc2C1(C)C [Example 86, 1-(1′,4-dimethyl-1-phenyl-1H,1′H-[3,4′-bipyrazol]-5-yl)-3-((r-1,t-2,t-3)-2-hydroxy-3-methoxy-4,4-dimethyl-1,2,3,4-tetrahydronaphthalen-1-yl)urea]	< 100 nM
CO[C@H]1[C@@H](O)[C@H](NC(=O)Nc2c(C)c(OCC3CCN(C)CC3)nn2-c2ccccc2)c2ccccc2C1(C)C [Example 87, 1-((r-1,t-2,t-3)-2-hydroxy-3-methoxy-4,4-dimethyl-1,2,3,4-tetrahydronaphthalen-1-yl)-3-(4-methyl-3-((1-methylpiperidin-4-yl)methoxy)-1-phenyl-1H-pyrazol-5-yl)urea]	< 100 nM

Source: patent publication US10351575B2, “Bicyclic urea, thiourea, guanidine and cyanoguanidine compounds useful for the treatment of pain” (Array BioPharma Inc., priority 2012, dated 2019)
